Columns and labels:
[1] = biological target: cAMP-dependent protein kinase catalytic subunit beta (Homo sapiens) (UniProt P22694); assay: Inhibition of PKAC-beta (unknown origin) assessed as remaining activity at 1 uM by Kinome scan method relative to control
[2] = biological target: 5'-AMP-activated protein kinase catalytic subunit alpha-2 (Homo sapiens) (UniProt P54646); assay: Inhibition of AMPK-alpha2 (unknown origin) assessed as remaining activity at 1 uM by Kinome scan method relative to control
[3] = biological target: Tyrosine-protein kinase HCK (Homo sapiens) (UniProt P08631); assay: Inhibition of HCK (unknown origin) assessed as remaining activity at 1 uM by Kinome scan method relative to control
[4] = biological target: Activin receptor type-2A (Homo sapiens) (UniProt P27037); assay: Inhibition of ACVR2A (unknown origin) assessed as remaining activity at 1 uM by Kinome scan method relative to control
[5] = system: Phosphatidylinositol 4,5-bisphosphate 3-kinase catalytic subunit alpha isoform (Homo sapiens), P42336 [C420R]; assay: Inhibition of PIK3CA C420R mutant (unknown origin) assessed as remaining activity at 1 uM by Kinome scan method relative to control
Chain of Phosphatidylinositol 4,5-bisphosphate 3-kinase catalytic subunit alpha isoform (Homo sapiens), P42336 [C420R] (P42336 whole entry C420R, canonical isoform): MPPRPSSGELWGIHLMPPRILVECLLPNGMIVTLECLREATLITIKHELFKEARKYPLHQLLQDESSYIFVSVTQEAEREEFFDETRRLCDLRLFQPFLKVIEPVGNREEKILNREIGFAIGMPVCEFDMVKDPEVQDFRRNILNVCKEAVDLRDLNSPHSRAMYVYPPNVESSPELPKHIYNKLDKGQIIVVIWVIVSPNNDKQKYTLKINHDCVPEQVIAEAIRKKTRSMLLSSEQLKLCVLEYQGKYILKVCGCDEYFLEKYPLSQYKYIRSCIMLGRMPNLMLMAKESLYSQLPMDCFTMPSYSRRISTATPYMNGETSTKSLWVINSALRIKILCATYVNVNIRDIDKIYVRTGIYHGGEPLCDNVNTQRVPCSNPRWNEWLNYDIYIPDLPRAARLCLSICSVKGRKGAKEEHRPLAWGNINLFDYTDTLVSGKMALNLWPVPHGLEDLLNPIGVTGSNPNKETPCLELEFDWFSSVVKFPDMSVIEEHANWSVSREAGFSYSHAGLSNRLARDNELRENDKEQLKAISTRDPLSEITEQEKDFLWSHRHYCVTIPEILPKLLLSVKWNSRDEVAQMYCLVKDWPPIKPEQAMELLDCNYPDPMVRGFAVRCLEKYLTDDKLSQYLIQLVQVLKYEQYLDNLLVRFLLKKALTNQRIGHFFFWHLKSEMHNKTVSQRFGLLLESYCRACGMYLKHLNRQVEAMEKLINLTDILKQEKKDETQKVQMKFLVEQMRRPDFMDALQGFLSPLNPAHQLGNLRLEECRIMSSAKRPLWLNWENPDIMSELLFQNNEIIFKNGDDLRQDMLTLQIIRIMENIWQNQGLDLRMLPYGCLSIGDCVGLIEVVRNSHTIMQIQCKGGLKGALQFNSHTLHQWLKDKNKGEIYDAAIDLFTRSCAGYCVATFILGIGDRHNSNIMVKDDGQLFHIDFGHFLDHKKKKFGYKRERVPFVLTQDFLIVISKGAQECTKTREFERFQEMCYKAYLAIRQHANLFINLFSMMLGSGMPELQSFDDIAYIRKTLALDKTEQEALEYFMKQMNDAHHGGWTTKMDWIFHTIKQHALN

[6] = biological target: Phosphatidylinositol 4-kinase beta (Homo sapiens) (UniProt Q9UBF8); assay: Inhibition of PIK4CB (unknown origin) assessed as remaining activity at 1 uM by Kinome scan method relative to control
Chain of Phosphatidylinositol 4-kinase beta (Homo sapiens) (Q9UBF8 2-816 limits assumed): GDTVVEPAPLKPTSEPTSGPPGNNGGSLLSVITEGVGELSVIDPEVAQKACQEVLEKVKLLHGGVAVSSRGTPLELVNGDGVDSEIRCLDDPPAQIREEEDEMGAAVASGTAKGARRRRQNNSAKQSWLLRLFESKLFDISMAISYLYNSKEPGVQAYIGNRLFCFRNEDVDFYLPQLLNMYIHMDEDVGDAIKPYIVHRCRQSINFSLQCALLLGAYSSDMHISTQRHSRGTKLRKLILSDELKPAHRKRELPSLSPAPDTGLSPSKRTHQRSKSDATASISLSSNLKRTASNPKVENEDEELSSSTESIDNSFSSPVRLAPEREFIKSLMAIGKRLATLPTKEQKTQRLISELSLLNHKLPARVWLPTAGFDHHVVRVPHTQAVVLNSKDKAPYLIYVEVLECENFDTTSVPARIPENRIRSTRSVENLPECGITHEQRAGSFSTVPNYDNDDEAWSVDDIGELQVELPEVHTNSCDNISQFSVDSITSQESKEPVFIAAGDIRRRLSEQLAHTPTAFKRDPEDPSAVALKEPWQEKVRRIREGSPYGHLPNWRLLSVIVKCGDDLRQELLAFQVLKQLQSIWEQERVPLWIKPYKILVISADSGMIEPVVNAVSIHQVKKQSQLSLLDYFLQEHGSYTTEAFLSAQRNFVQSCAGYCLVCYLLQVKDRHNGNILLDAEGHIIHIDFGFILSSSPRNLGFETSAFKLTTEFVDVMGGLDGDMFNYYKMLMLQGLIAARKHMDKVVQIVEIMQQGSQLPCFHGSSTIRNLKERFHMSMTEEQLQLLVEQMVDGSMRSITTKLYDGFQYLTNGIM

[7] = biological target: Cyclin-dependent kinase 11B (Homo sapiens) (UniProt P21127); assay: Inhibition of CDC2L1 (unknown origin) assessed as remaining activity at 1 uM by Kinome scan method relative to control
[8] = biological target: Homeodomain-interacting protein kinase 3 (Homo sapiens) (UniProt Q9H422); assay: Inhibition of HIPK3 (unknown origin) assessed as remaining activity at 1 uM by Kinome scan method relative to control
[9] = system: Tyrosine-protein kinase ABL1 (Homo sapiens), P00519 [F317I]; assay: Inhibition of ABL1 F317I mutant (unknown origin) assessed as remaining activity at 1 uM by Kinome scan method relative to control
Chain of Tyrosine-protein kinase ABL1 (Homo sapiens), P00519 [F317I] (P00519 whole entry F317I): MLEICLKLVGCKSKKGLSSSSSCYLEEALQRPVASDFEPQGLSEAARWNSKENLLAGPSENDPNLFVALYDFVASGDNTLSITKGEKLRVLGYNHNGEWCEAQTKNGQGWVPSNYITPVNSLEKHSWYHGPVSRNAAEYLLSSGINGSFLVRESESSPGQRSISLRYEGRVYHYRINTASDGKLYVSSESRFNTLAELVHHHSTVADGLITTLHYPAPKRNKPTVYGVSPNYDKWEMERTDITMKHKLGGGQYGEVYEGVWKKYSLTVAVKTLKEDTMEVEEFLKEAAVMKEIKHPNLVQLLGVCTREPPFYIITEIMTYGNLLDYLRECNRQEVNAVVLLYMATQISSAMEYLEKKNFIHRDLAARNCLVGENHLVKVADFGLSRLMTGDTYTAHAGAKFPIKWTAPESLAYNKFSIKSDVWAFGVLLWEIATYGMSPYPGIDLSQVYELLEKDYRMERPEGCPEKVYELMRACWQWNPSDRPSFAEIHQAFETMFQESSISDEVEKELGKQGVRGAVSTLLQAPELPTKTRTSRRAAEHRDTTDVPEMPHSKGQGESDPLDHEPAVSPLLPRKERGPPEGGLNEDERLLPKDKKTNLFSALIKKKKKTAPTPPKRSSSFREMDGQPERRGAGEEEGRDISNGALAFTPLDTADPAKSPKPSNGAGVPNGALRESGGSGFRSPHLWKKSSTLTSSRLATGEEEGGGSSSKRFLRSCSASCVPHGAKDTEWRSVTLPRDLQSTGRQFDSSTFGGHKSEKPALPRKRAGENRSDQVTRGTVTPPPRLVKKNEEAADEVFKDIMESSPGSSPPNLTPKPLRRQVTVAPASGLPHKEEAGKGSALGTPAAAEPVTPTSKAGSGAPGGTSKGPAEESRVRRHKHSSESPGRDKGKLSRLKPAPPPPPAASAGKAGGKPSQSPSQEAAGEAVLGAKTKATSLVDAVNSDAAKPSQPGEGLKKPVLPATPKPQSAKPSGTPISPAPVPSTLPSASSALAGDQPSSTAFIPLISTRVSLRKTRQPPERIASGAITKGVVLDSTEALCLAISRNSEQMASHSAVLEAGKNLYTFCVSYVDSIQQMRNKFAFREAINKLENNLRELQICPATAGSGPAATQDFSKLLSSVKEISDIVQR

[10] = biological target: T1, cGMP-dependent protein kinase 1 (Homo sapiens) (UniProt Q13976); assay: Inhibition of PRKG1 (unknown origin) assessed as remaining activity at 1 uM by Kinome scan method relative to control
T1 sequence (whole entry): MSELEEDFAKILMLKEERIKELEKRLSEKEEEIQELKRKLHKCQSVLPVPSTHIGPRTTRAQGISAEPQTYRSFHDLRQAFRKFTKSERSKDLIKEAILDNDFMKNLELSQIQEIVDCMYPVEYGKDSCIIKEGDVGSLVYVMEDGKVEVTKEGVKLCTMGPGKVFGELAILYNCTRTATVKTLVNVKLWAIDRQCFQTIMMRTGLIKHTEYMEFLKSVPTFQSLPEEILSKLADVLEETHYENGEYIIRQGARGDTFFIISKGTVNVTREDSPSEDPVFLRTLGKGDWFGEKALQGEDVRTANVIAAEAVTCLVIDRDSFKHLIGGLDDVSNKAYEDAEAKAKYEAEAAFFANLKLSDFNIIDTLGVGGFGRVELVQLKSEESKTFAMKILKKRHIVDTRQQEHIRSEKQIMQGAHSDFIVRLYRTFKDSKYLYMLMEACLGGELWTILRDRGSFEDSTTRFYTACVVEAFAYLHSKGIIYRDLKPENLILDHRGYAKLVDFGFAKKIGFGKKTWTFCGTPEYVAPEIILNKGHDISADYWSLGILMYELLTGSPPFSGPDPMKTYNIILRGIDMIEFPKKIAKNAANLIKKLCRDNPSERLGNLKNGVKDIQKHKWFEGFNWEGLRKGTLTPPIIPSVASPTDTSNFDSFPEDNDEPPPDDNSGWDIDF

[11] = biological target: Serine/threonine-protein kinase 32B (Homo sapiens) (UniProt Q9NY57); assay: Inhibition of YANK2 (unknown origin) assessed as remaining activity at 1 uM by Kinome scan method relative to control
[12] = biological target: Microtubule-associated serine/threonine-protein kinase 1 (Homo sapiens) (UniProt Q9Y2H9); assay: Inhibition of MAST1 (unknown origin) assessed as remaining activity at 1 uM by Kinome scan method relative to control
Homo sapiens = organism: Homo sapiens; assay: Inhibition of ACVR1a (unknown origin) assessed as remaining activity at 1 uM by Kinome scan method relative to control
[13] = biological target: Mitogen-activated protein kinase 7 (Homo sapiens) (UniProt Q13164); assay: Inhibition of ERK5 (unknown origin) assessed as remaining activity at 1 uM by Kinome scan method relative to control
[14] = biological target: Tyrosine-protein kinase Blk (Homo sapiens) (UniProt P51451); assay: Inhibition of BLK (unknown origin) assessed as remaining activity at 1 uM by Kinome scan method relative to control
[15] = biological target: Mitogen-activated protein kinase kinase kinase 15 (Homo sapiens) (UniProt Q6ZN16); assay: Inhibition of MAP3K15 (unknown origin) assessed as remaining activity at 1 uM by Kinome scan method relative to control
[16] = biological target: Death-associated protein kinase 1 (Homo sapiens) (UniProt P53355); assay: Inhibition of DAPK1 (unknown origin) assessed as remaining activity at 1 uM by Kinome scan method relative to control
[17] = biological target: Phosphatidylinositol 3-kinase C2 domain-containing subunit gamma (Homo sapiens) (UniProt O75747); assay: Inhibition of PIK3C2G (unknown origin) assessed as remaining activity at 1 uM by Kinome scan method relative to control
[18] = biological target: Cyclin-dependent kinase 17 (Homo sapiens) (UniProt Q00537); assay: Inhibition of PCTK2 (unknown origin) assessed as remaining activity at 1 uM by Kinome scan method relative to control
Chain of Cyclin-dependent kinase 17 (Homo sapiens) (Q00537 whole entry, looked up): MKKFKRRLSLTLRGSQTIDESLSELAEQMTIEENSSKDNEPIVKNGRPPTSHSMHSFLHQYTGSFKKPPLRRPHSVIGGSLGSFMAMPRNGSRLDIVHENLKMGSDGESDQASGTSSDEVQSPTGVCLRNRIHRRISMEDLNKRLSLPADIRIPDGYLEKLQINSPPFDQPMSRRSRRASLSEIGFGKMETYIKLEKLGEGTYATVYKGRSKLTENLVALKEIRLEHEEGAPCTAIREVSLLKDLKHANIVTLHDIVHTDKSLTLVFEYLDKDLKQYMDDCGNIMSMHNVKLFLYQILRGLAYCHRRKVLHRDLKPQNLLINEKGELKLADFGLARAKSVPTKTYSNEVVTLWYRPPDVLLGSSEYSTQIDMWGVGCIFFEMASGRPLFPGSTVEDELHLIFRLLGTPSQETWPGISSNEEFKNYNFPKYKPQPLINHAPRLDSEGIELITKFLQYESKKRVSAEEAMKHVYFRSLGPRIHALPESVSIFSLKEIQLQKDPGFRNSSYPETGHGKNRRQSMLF

[19] = biological target: Dual specificity tyrosine-phosphorylation-regulated kinase 1A (Homo sapiens) (UniProt Q13627); assay: Inhibition of DYRK1A (unknown origin) assessed as remaining activity at 1 uM by Kinome scan method relative to control
[20] = biological target: Cyclin-dependent kinase-like 5 (Homo sapiens) (UniProt O76039); assay: Inhibition of CDKL5 (unknown origin) assessed as remaining activity at 1 uM by Kinome scan method relative to control
[21] = biological target: Fibroblast growth factor receptor 1 (Homo sapiens) (UniProt P11362); assay: Inhibition of FGFR1 (unknown origin) assessed as remaining activity at 1 uM by Kinome scan method relative to control
[22] = biological target: Mitogen-activated protein kinase kinase kinase 19 (Homo sapiens) (UniProt Q56UN5); assay: Inhibition of YSK4 (unknown origin) assessed as remaining activity at 1 uM by Kinome scan method relative to control
Chain of Mitogen-activated protein kinase kinase kinase 19 (Homo sapiens) (Q56UN5 whole entry): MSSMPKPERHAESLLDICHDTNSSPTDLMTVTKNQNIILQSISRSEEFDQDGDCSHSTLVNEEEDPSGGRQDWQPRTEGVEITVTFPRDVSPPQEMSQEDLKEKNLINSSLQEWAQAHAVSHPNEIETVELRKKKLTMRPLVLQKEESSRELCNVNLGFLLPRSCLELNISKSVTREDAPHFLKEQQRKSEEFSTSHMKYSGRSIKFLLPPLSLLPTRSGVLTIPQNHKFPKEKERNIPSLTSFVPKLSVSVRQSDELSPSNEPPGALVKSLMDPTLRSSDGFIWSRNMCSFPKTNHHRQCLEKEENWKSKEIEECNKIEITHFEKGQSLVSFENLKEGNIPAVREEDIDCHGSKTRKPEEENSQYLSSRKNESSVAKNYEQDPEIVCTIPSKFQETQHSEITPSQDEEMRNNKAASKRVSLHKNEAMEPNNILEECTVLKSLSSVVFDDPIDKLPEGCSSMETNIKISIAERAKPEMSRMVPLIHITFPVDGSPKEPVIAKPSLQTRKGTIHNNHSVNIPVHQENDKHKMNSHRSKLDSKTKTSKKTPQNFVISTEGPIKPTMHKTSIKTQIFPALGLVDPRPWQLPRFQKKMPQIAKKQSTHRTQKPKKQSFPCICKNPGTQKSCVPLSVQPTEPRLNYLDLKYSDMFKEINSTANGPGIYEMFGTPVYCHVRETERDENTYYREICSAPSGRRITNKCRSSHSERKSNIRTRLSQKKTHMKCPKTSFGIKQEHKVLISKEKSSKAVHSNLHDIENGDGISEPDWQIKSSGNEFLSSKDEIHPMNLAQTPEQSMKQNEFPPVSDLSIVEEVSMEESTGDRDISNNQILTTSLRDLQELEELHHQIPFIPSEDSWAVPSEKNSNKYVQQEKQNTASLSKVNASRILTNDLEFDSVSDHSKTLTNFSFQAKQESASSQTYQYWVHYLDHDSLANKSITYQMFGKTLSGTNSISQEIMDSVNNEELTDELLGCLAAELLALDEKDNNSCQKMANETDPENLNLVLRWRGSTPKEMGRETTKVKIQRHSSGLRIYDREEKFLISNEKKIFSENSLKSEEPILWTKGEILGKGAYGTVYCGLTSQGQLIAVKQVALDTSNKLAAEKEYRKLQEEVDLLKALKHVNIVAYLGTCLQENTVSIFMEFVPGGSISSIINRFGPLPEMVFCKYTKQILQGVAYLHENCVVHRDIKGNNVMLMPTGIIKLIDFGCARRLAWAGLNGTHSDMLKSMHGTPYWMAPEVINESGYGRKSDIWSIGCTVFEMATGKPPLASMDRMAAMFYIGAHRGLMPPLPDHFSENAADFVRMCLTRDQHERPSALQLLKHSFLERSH

[23] = biological target: BMP-2-inducible protein kinase (Homo sapiens) (UniProt Q9NSY1); assay: Inhibition of BIKE (unknown origin) assessed as remaining activity at 1 uM by Kinome scan method relative to control
[24] = biological target: MAP/microtubule affinity-regulating kinase 3 (Homo sapiens) (UniProt P27448); assay: Inhibition of MARK3 (unknown origin) assessed as remaining activity at 1 uM by Kinome scan method relative to control
[25] = biological target: Phosphatidylinositol 4,5-bisphosphate 3-kinase catalytic subunit delta isoform (Homo sapiens) (UniProt O00329); assay: Inhibition of PIK3CD (unknown origin) assessed as remaining activity at 1 uM by Kinome scan method relative to control

Compound	Activity [1] [%]	Activity [2] [%]	Activity [3] [%]	Activity [4] [%]	Activity [5] [%]	Activity [6] [%]	Activity [7] [%]	Activity [8] [%]	Activity [9] [%]	Activity [10] [%]	Activity [11] [%]	Activity [12] [%]	Activity (Homo sapiens) [%]	Activity [13] [%]	Activity [14] [%]	Activity [15] [%]	Activity [16] [%]	Activity [17] [%]	Activity [18] [%]	Activity [19] [%]	further results
Nc1ccccc1Nc1ccc2c(c1)CCc1ccccc1C2=O	88	95	93	96	91	91	94	64	78	88	89	79	98	96	66	94	95	97	93	92	Activity [20]: 96%; Activity [21]: 94%; Activity [22]: 99%; Activity [23]: 50%; Activity [24]: 82%; Activity [25]: 62%
O=C1c2ccc(Nc3ccc(F)cc3F)cc2CCc2ccc(OC[C@H](O)CO)cc21 [Skepinone-L]	74	100	97	95	100	95	99	67	92	100	98	85	98	99	97	80	100	100	89	98	Activity [20]: 100%; Activity [21]: 90%; Activity [22]: 100%; Activity [23]: 37%; Activity [24]: 90%; Activity [25]: 70%

Reference: ChEMBL document CHEMBL5696441 (Nat Chem Biol, 2011)
